In patent US20180282339A1 (OLON S.P.A., priority 2015, published 2018):

Settings: conditions not specified at this place, b45 (heating at 60-120 ° C. for 1-12 hours gives amorphous form)
Experimental: In particular the following tests have been made: • stability at 25° C./40% Relative Humidity for 7 days • stability at 40° C./75% Relative Humidity for 7 days • stability at 25° C./60% Relative Humidity for 7 days • stability at 60° C./40% Relative Humidity for 7 days

C=CC(=O)N1CCC[C@@H](n2nc(-c3ccc(Oc4ccccc4)cc3)c3c(N)ncnc32)C1 [Form L, 1-[(3R)-3-[4-amino-3-(4-phenoxyphenyl)-1H-pyrazolo[3,4-d]pyrimidin-1-yl]piperidin-1-yl]prop-2-en-1-one]
solid form conversion in some conditions: converts in Form A or in the amorphous form
